The values that follow come from US10046038B2, “Leptospira with increased antigenic mass” (priority 2012, dated 2018).

Assay [1] has as its system Leptospira serogroup Australis (serovar Bratislava). The class given is cell-based, L. interrogans (sensu lato).
Assay [2] deals with Leptospira serogroup Grippotyphosa. Type of assay: cell-based, L. interrogans (sensu lato).
Assay [3] concerns Leptospira serogroup Canicola (strain WS 280503). How it is done: (§1) All experiments were performed in 0.5, 2 or 20 L working volume, computer-controlled fermenters (Sartorius), which were filled with 0.5, 1 or 10 L sterile-filtered EMJH medium, respectively. The standard EMJH medium contained 1% w/v BSA and 0.125% w/v polysorbate 80. The pH of the medium was 7.4 ±0.1 at start. The fermenter was inoculated with 5% v/v serogroup lcterohaemorrhagiae pre-culture (passage 5), giving an inoculation density of 2-4×10^7 cells/ml at day 0.
(§2) Daily 5 ml samples were taken aseptically, directly from the fermenter, for analyses of total cell count (by Petroff-Hausser counting chamber); antigenic mass (by antigen amount Elisa); inactivated cells; and for profiling of the fatty acid type and-relative amounts (by gas chromatography) in the culture medium.
(§3) Samples were inactivated with 0.1 or 0.2% v/v BPL, at 29° C. for 16-24 hours. The inactivated Leptospira were tested in an antigen Elisa within 24 hours.
(§4) For a reference see: R. A. Hartskeerl et al., (International course on laboratory methods for the diagnosis of Leptospirosis, 4th Edition, 1 Apr. 2004. Royal Tropical Institute, Amsterdam).
(§5) The Elisa's were set up as capture assays, whereby the same moab was used for coating and for detection.
(§6) A reference standard was prepared for each Leptospira strain that was tested by antigen Elisa. The standard is a batch of monovalent Leptospira antigen, from inactivated cells. This was prepared using common techniques, essentially by proliferating a specific strain of Leptospira in EMJH medium as described above, and was inactivated as described before. Next the standard was concentrated and/or diluted in phosphate buffered saline, to contain about 1×10^9 cells/ml. An arbitrary number of antigen units was affixed to the sample, for example: 1000 Units/ml. When the standard needed replenishing, a subsequent preparation of the same standard, was compared and titrated alongside the old standard several times, before replacing it.
(§7) As before, the average antigenic mass score by Elisa was calculated per 1×10^9 cells (pre-inactivation). […] The average antigenic mass 1×10^9 cells of the reference culture was set at 0% increase.
(§8) Both alpha-and gamma C18:3 were purchased as pure chemicals (>98%). Shortly before use for supplementation, they were diluted in pure ethanol to 10% or 20% v/v, depending on the amount of C18:3 that was to be added to a culture. This dilution in ethanol was added to a Leptospira culture by addition in 5 doses, divided over a period of 4 hours.

Assay [4] deals with Leptospira serogroup Pomona. How it is done: as §1, §2, §3, §4, §5, §6, §7, §8
For assay [5], the system named is Leptospira serogroup Icterohaemorrhagiae. Put plainly: Biomass (total cell count) and toxicity in fermenter culture. The class given is cell-based, L. interrogans (sensu lato). Here is the method: (§9) During all fermentation experiments the temperature was controlled at about 29° C. The medium was aerated with headspace airflow, and the dissolved oxygen (pO2) concentration was controlled by automatic variation of the agitation-rate, to maintain a set pO2 concentration. Temperature, pH and pO2 concentration were monitored online, but pH and foam formation were not controlled.

Assay [6] has as its system Leptospira serogroup Tarassovi. Type of assay: cell-based, L. interrogans (sensu lato). Here is the method: as §1
(§10) Supplementation was done either with pure linoleic acid (Sigma Aldrich, >99% pure) as a 10% v/v stock in absolute ethanol (JT Baker). Alternatively, linoleic acid was supplemented by using a BSA that was created with a high level of linoleic acid (high LA BSA). This high LA BSA was used either to replace a standard BSA in EMJH medium, or was used in addition to BSA in the EMJH medium, in which case it was added as a 25% w/v stock solution in sterile water. The high LA BSA or the pure linoleic acid/ethanol supplements were fed to a fermenter over the course of 4 hours, at 0.1-0.2 ml/hour, until the fermenter culture had received a desired total amount of linoleic acid. Different total available levels of linoleic acid have been tested, of between about 5 and 425 μg/ml in the total volume. The fermenter cultures of Leptospira were supplemented at different cell-densities i.e. at early-, mid- or end phase culture.
as §2, §3, §4, §5, §6, §7
Both alpha-and gamma C18:3 were purchased as pure chemicals (>98%).

Assay [7] deals with Leptospira serogroup Icterohaemorrhagiae. Put plainly: Antigenic mass of fermenter culture by antigen Elisa. The class given is cell-based, L. interrogans (sensu lato). The following applies: for Ag U/10^9 cells/ml, at 3 days: BSA ingredient in EMJH medium, not supplemented. How it is done:
A working seed of a strain of L. interrogans was inoculated into EMJH medium and incubated at 29° C. for 3 to 5 days. If needed up to 5 consecutive pre-culture passages could be made, whereby the pre-cultures were visually inspected for sufficient proliferation (turbidity) as criterion for transfer to the next passage.
as §1, §9
In comparative experiments up to 4 fermenters were run in parallel, which started off simultaneously with the same medium and Leptospira inoculum. One fermenter then usually contained only standard EMJH medium and served as reference, while in the others different supplementations of polyunsaturated C18 fatty acid were made.
as §10, §2, §3, §4, §5
A reference standard was prepared for each Leptospira strain that was tested by antigen Elisa. The standard is a batch of monovalent Leptospira antigen, from inactivated cells. This was prepared using common techniques, essentially by proliferating a specific strain of Leptospira in EMJH medium as described above, and was inactivated as described before.

The subject of assay [8] is Leptospira serogroup Sejroe (serovar Hardjo). The description is as above. The class given is cell-based, L. interrogans (sensu lato). The following applies: high LA BSA in EMJH. How it is done:
as §10, with “culture. Typical mid-phase cell density was at about 5×10^8 cells/ml, which was reached during day 2 of the main incubation. Upon supplementation with linoleic acid from the pure linoleic acid in ethanol stock, sometimes a small decrease in pH was noted, which was corrected by applying some NaOH.” for “culture.”
In a next study it was confirmed that the increase in antigenic mass upon supplementation with linoleic acid (C18:2) is a general phenomenon in Leptospira. […]

The mark [9] stands for this setting: 100 μg/ml, alpha vs gamma side by side, FIGS. 19 and 20.
Setting [10] is: supplementation at 5×10^8 cells/ml, FIGS. 33-36.
Setting [11] is: supplementation at 8×10^8 cells/ml, FIGS. 33-36.
Setting [12] is: BSA used in EMJH medium, compared with standard BSA.

Read-outs that look alike come from different tables or passages of the source.

For `CCC=CCC=CCC=CCCCCCCCC(=O)O` [alpha C18:3, 9, 12, 15-octadecatrienoic acid], the “Relative increase in antigenic mass (%)” value in assay [1] (100 μg/ml alpha C18:3) came to 40%; in assay [1] (200 μg/ml alpha C18:3), 62%; in assay [2] (100 μg/ml alpha C18:3), 60%; in assay [2] (200 μg/ml alpha C18:3), 63%; in assay [3] (200 μg/ml), 107%; in assay [3] (300 μg/ml) it was 112%. For the same molecule, the “Relative increase in antigenic mass (%)” value is reported as 118% in assay [3] (400 μg/ml); 0% in assay [4] (100 μg/ml alpha C18:3); 0% in assay [4] (200 μg/ml alpha C18:3); 59% in assay [6] (100 μg/ml alpha C18:3); 141% in assay [6] (200 μg/ml alpha C18:3). Also, the “toxicity on the culture” value in assay [5] (300 or 400 μg/ml, FIGS. 15 and 16) is “toxic effects”. The “increase in relative antigenic mass” value was found to be 144% in assay [7] (100 μg/ml single fatty acid, FIGS. 37 and 38); 122% in assay [7] (setting [9]). Also, the “increase in antigenic mass” value in assay [7] (100 μg/ml, FIGS. 15 and 16, vs unsupplemented reference) worked out at 122%; in assay [7] (200 μg/ml, FIGS. 15 and 16, vs unsupplemented reference) it was 81%. For the same molecule, the “Relative increase in antigenic mass” value in assay [7] (supplementation at 1×10^8 cells/ml, FIGS. 33-34) amounted to 163%; in assay [7] (setting [10]) it was 164%; in assay [7] (setting [11]) it was 140%.
Take `CCCCCC=CCC=CCC=CCCCCC(=O)O` [gamma C18:3, 6,9, 12-octadecatrienoic acid]: the “Relative increase in antigenic mass (%)” value in assay [1] (100 μg/ml gamma C18:3) is given as 15%; in assay [2] (100 μg/ml gamma C18:3) it was 57%; in assay [3] (200 μg/ml), 98%; in assay [3] (300 μg/ml), 83%; in assay [4] (100 μg/ml gamma C18:3), 73%; in assay [6] (100 μg/ml gamma C18:3), 51%. Besides, the “toxicity on the culture” value in assay [5] (400 μg/ml, FIGS. 17 and 18) is reported as “showed toxicity”. Moreover, the “increase in relative antigenic mass” value in assay [7] (setting [9]) came out at 170%. The “increase in antigenic mass” value was 114% in assay [7] (200 μg/ml, FIGS. 17 and 18); 153% in assay [7] (300 μg/ml, FIGS. 17 and 18). In addition, the “Relative increase in antigenic mass” value in assay [7] (supplementation at 2×10^8 cells/ml, FIGS. 35-36) is 71%; in assay [7] (setting [10]), 81%; in assay [7] (setting [11]), 162%.
“BSA, BovoLep ®: standard BSA enriched with a number of vegetable fatty acids, recommended for promoting growth of Leptospira (Bovogen, Australia)”: the effect on biomass result in assay [5] (setting [12]) is on record as “did increase the biomass”. Further, the “Ag U/10^9 cells/ml, at 3 days” value in assay [7] is given as 498 Ag U/10^9 cells/ml. For the same molecule, the “effect on antigenic mass” value in assay [7] (setting [12]) is given as “no significant effect”.
Consider “BSA, BovoStar ®: a standard all-purpose BSA from the same manufacturer (Bovogen)”, for which, in assay [7], the “Ag U/10^9 cells/ml, at 3 days” value is given as 533 Ag U/10^9 cells/ml.
On the same count and under the same terms, next, “BSA, Millipore: standard commercial BSA (Millipore)”: 525 Ag U/10^9 cells/ml.
In the case of “high LA BSA: a BSA that was created with a high level of linoleic acid”, the “relative Ag. mass (%)” value in assay [8] (C18:2 total 25 μg/ml (reference = 100), 2 day average) came out at 100%; in assay [2] (high LA BSA in EMJH, C18:2 total 25 μg/ml (reference = 100), 2 day average), 100%; in assay [7] (supplem. high LA BSA giving 50 μg/ml C18:2, total 55 μg/ml, non-supplemented = 100, average of days 3-5), 221%. In addition, the “Antigenic mass, Ag U/10^9 cells/ml” value in assay [8] (C18:2 total 25 μg/ml, 2 day average (days 5 and 6)) came out at 287 Ag U/10^9 cells/ml; in assay [2] (high LA BSA in EMJH, C18:2 total 25 μg/ml, 2 day average (days 4 and 5)), 5074 Ag U/10^9 cells/ml. This molecule gave an antigenic mass in assay [7] (high LA BSA at 1% w/v in EMJH, 25 μg/ml linoleic acid available, average of days 3-5) of 1636 Ag U/1×10^9 cells. Further, the “Ag. mass, Ag U/10^9 cells/ml” value in assay [7] (supplem. high LA BSA giving 50 μg/ml C18:2, total 55 μg/ml, EMJH standard BSA, average of days 3-5) is given as 1612 Ag U/10^9 cells/ml.
